Measurements reported in the supplement of paper PMC10307832.

Columns and labels:
Assay in all cases: relative viability (nuclei count vs DMSO), 5 days (fraction); higher = more cells survive
[1] = compound: C#Cc1cccc(Nc2ncnc3cc(OC)c(OCCCCCCC(=O)NO)cc23)c1 [CUDC-101] + CCNC(=O)c1noc(-c2cc(C(C)C)c(O)cc2O)c1-c1ccc(CN2CCOCC2)cc1 [Luminespib] (partner 0.01 µM)
Summary of the method: (§1)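 Lung cancer cell lines were seeded in 1536-well plates and dosed by pin tool the next day, with either a single drug or a fixed anchor-drug dose combined with five library-drug doses (not always all listed) spaced in √10 steps. Five days later, one step fixed the cells and stained their nuclei (final 0.05% Triton X-100, 1% formaldehyde, 1 ug/ml Hoechst), and nuclei were counted on 4× images. Relative viability is the nuclei count in treated wells divided by the count in vehicle wells, and each value is the median of duplicate plates.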

[2] = compound: COc1cc(N2CCC(N3CCN(C)CC3)CC2)ccc1Nc1ncc(Cl)c(Nc2ccccc2S(=O)(=O)C(C)C)n1 [NVP-TAE684] + COc1cc2c(Oc3ccc(NC(=O)C4(C(=O)Nc5ccc(F)cc5)CC4)cc3F)ccnc2cc1OCCCN1CCOCC1 [Foretinib] (partner 0.25 µM)
Summary of the method: as §1

[3] = compound: COc1cc2/c(=N/c3ccc(Br)cc3F)nc[nH]c2cc1OCC1CCN(C)CC1 [Vandetanib] + CC(=O)Nc1cccc(-n2c(=O)n(C3CC3)c(=O)c3c(Nc4ccc(I)cc4F)n(C)c(=O)c(C)c32)c1 [Trametinib] (partner 0.02 µM)
Summary of the method: as §1

[4] = compound: COc1cc2/c(=N/c3ccc(Br)cc3F)nc[nH]c2cc1OCC1CCN(C)CC1 [Vandetanib] + C[C@@H](Oc1cc(-c2cnn(C3CCNCC3)c2)cnc1N)c1c(Cl)ccc(F)c1Cl [Crizotinib] (partner 1 µM)
Summary of the method: as §1

## UMC-11
[1]; first compound 0.01 µM
  relative viability: 1.22
[1]; first compound 0.03162 µM
  relative viability: 0.879
[1]; first compound 0.1 µM
  relative viability: 1.03
[1]; first compound 0.3162 µM
  relative viability: 0.43
[1]; first compound 1 µM
  relative viability: 0.165
[2]; first compound 0.2 µM
  relative viability: 1.03
[2]; first compound 0.6325 µM
  relative viability: 0.926
[2]; first compound 2 µM
  relative viability: 0.334
[3]; first compound 0.02 µM
  relative viability: 0.82
[3]; first compound 0.06325 µM
  relative viability: 0.674
[3]; first compound 0.2 µM
  relative viability: 0.627
[3]; first compound 0.6325 µM
  relative viability: 0.632
[3]; first compound 2 µM
  relative viability: 0.583
[4]; first compound 0.02 µM
  relative viability: 0.588
[4]; first compound 0.06325 µM
  relative viability: 0.654
[4]; first compound 0.2 µM
  relative viability: 0.632
[4]; first compound 0.6325 µM
  relative viability: 0.494
[4]; first compound 2 µM
  relative viability: 0.61
